Test results taken from patent US20180280377A1, “Imidazo[4,5-c]quinolin-2-one Compounds and Their Use in Treating Cancer” (ASTRAZENECA AB, priority 2015, published 2018).

Legend:
[1] = target: T1, ATM (Homo sapiens, UniProt Q13315); assay: ATM cellular potency assay (pATM Ser1981 in irradiated HT29 cells); type: cell-based; details: 1 h compound, X-ray irradiation, pATM (Ser1981); Table 2; read-out: Assay a) ATM Cell IC50
T1 construct: endogenous in cells; host or cells: HT29 cells (ECACC #85061109)
Description: (§1) The following assays were used to measure the effects of the compounds of the present invention: a) ATM cellular potency assay; b) PI3K cellular potency assay; c) mTOR cellular potency assay; d) ATR cellular potency assay. During the description of the assays, generally: • i. […] IC50 values were calculated using a smart fitting model in Genedata.
Most ATM molecules in the cell are rapidly phosphorylated on this site after doses of radiation as low as 0.5 Gy, and binding of a phosphospecific antibody is detectable after the introduction of only a few DNA double-strand breaks in the cell.
The rationale of the pATM assay is to identify inhibitors of ATM in cells. HT29 cells are incubated with test compounds for 1 h prior to X-ray-irradiation. 1 h later the cells are fixed and stained for pATM (Ser1981). The fluorescence is read on the arrayscan imaging platform.
The following morning compounds of Formula (I) in 100% DMSO were added to assay plates by acoustic dispensing. After 1 h incubation at 37° C. and 5% CO2, plates (up to 6 at a time) were irradiated using the X-RAD 320 instrument (PXi) with equivalent to 600 cGy. Plates were returned to the incubator for a further 1 h. Then cells were fixed by adding 20 μl of 3.7% formaldehyde in PBS solution and incubating for 20 minutes at r.t. before being washed with 50μl/well PBS, using a Biotek EL405 plate washer. Then 20 μl of 0.1% Triton X100 in PBS was added and incubated for 20 minutes at r.t., to permeabalise cells. Then the plates were washed once with 50 μl/well PBS, using a Biotek EL405 plate washer.
After 1 h incubation at r.t., the plates were washed three times with 50 μl/well PBS, using a Biotek EL405 plate washer, and plates were sealed and kept in PBS at 4° C. until read. Plates were read using an ArrayScan VTI instrument, using an XF53 filter with 10× objective.

[2] = target: T2, ATR (Homo sapiens, UniProt Q13535); assay: ATR cellular potency assay (pChk1 Ser345 in HT29 cells after 4NQO); type: cell-based; details: pChk1 (Ser 345); Table 2; read-out: Assay b) ATR Cell IC50
T2 construct: endogenous in cells; host or cells: HT29 cells (ECACC #85061109)
Description: as §1
ATR is a PI3-kinase-related kinase which phosphorylates multiple substrates on serine or threonine residues in response to DNA damage during or replication blocks. Chk1, a downstream protein kinase of ATR, plays a key role in DNA damage checkpoint control. Activation of Chk1 involves phosphorylation of Ser317 and Ser345 (the latter regarded as the preferential target for phosphorylation/activation by ATR).
The following morning compound of Formula (I) in 100% DMSO were added to assay plates by acoustic dispensing. After 1 h incubation at 37° C. and 5% CO2, 40 nl of 3 mM 4NQO in 100% DMSO was added to all wells by acoustic dispensing, except minimum control wells which were left untreated with 4NQO to generate a null response control. Plates were returned to the incubator for a further 1 h. Then cells were fixed by adding 20 μl of 3.7% formaldehyde in PBS solution and incubating for 20 mins at r.t. Then […] of 0.1% Triton X100 in PBS was added and incubated for 10 minutes at r.t., to permeabalise cells. Then the plates were washed once with […] PBS, using a Biotek EL405 plate washer.
After 2 h incubation at r.t., the plates were washed three times with […] PBS, using a Biotek EL405 plate washer, and plates were then sealed with black plate seals until read. Plates were read using an ArrayScan VTI instrument, using an XF53 filter with 10× objective.

T1 sequence (Q13315 whole entry): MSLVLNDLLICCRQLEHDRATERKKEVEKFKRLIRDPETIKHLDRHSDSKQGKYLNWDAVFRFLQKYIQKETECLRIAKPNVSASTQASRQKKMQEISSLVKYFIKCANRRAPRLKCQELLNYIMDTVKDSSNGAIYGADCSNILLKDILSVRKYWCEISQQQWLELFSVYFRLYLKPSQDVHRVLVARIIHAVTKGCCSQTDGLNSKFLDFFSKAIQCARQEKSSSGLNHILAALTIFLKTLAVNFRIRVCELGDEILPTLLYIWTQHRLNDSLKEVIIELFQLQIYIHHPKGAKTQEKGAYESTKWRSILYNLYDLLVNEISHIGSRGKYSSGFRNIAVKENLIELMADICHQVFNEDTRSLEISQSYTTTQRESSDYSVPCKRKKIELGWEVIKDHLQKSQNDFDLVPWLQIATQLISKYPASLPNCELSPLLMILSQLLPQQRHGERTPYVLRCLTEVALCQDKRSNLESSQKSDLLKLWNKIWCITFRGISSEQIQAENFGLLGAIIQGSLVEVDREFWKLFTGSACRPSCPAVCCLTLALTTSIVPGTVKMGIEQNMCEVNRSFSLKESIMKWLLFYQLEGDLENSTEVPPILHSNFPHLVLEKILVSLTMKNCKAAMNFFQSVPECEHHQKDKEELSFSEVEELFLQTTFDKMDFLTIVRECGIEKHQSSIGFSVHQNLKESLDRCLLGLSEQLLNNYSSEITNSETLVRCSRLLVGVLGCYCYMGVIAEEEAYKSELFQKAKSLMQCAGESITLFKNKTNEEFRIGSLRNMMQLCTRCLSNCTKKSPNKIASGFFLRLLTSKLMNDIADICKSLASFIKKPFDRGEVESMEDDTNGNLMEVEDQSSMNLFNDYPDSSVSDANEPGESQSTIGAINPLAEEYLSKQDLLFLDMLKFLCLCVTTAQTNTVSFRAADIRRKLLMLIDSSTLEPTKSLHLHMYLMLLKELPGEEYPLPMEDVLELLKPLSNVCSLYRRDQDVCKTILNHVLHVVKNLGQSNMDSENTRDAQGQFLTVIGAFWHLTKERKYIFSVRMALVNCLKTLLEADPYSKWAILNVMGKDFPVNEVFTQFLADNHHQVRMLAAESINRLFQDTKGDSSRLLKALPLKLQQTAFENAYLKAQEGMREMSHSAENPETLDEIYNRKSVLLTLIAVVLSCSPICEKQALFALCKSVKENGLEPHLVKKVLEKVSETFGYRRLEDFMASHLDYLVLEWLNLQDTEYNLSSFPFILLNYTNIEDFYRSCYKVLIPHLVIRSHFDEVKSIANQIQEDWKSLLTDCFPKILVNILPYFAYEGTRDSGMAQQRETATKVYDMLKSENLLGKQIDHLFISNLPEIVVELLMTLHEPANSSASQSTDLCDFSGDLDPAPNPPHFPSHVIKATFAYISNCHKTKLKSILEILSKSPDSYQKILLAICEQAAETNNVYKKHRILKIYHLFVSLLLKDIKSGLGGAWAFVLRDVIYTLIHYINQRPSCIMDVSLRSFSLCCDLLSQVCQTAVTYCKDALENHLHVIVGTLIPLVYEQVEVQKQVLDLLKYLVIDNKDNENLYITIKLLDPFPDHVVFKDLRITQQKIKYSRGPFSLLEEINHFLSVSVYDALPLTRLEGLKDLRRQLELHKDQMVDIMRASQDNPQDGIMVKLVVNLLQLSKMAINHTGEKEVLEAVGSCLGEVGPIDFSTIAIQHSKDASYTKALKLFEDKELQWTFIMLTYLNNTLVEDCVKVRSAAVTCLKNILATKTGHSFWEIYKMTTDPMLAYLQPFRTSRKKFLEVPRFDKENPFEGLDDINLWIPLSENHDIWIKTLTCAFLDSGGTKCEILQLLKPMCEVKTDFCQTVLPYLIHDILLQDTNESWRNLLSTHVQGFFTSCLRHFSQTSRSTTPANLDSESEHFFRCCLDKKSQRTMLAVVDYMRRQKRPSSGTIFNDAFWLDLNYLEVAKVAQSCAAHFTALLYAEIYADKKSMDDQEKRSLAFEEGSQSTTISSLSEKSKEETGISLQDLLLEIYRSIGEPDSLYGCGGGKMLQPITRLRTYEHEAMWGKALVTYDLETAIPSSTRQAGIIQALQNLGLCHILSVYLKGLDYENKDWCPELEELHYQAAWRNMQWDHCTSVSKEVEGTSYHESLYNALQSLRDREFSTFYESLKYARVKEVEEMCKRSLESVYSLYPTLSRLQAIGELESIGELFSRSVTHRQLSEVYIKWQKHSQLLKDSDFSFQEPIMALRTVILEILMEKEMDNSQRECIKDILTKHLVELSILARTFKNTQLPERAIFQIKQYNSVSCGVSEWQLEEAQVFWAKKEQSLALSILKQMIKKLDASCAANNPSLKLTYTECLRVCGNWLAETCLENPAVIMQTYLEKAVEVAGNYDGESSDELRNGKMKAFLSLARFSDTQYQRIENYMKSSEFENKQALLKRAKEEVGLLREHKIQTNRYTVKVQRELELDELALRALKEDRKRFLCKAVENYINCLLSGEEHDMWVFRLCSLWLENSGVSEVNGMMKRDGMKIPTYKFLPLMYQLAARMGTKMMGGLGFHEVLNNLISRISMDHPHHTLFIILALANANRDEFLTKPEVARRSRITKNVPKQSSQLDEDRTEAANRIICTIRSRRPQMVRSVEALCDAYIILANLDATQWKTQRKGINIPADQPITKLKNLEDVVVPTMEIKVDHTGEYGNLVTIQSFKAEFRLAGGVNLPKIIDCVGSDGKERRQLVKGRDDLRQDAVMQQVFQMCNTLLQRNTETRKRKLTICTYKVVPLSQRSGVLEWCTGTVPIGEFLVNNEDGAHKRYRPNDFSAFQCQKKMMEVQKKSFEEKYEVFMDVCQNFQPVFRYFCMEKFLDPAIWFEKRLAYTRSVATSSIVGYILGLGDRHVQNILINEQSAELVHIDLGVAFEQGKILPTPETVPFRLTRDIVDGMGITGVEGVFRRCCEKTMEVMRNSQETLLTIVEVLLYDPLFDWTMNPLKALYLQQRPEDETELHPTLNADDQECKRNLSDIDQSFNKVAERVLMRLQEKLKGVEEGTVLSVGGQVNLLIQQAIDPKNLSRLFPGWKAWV

| IC50 [1] [nM] | IC50 [2] [nM] | Compound |
| --- | --- | --- |
| 2.69 | > 30000 | 8-[6-[4-(dimethylamino)-1-piperidyl]-3-pyridyl-3-methyl-1-tetrahydropyran-4-yl-imidazo[4,5-c]quinolin-2-one [Example 39] |
| 13.4 | 6710 | CO[C@H]1CC[C@H](n2c(=O)n(C)c3cnc4ccc(-c5ccc(N6CC(N(C)C)C6)nc5)cc4c32)C1 (single isomer, unassigned) [Example 22, 8-[6-[3-(dimethylamino)azetidin-1-yl]-3-pyridyl]-1-[trans-3-methoxycyclopentyl]-3-methyl-imidazo[4,5-c]quinolin-2-one] |
| 22.8 | > 24000 | CO[C@H]1CC[C@H](n2c(=O)n(C)c3cnc4ccc(-c5ccc(N6CC(N(C)C)C6)nc5)cc4c32)C1 (single isomer, unassigned) [Example 23, 8-[6-[3-(dimethylamino)azetidin-1-yl]-3-pyridyl]-1-[trans-3-methoxycyclopentyl]-3-methyl-imidazo[4,5-c]quinolin-2-one] |
| 9.68 | > 30000 | CO[C@H]1CC[C@H](n2c(=O)n(C)c3cnc4cc(F)c(-c5ccc(N6CC(N(C)C)C6)nc5)cc4c32)C1 (single isomer, unassigned) [Example 29, 8-[6-[3-(dimethylamino)azetidin-1-yl]-3-pyridyl]-7-fluoro-1-[trans-3-methoxycyclopentyl]-3-methyl-imidazo[4,5-c]quinolin-2-one] |
| 24.9 | > 30000 | CO[C@H]1CC[C@H](n2c(=O)n(C)c3cnc4cc(F)c(-c5ccc(N6CC(N(C)C)C6)nc5)cc4c32)C1 (single isomer, unassigned) [Example 30, 8-[6-[3-(dimethylamino)azetidin-1-yl]-3-pyridyl]-7-fluoro-1-[trans-3-methoxycyclopently]-3-methyl-imidazo[4,5-c]quinolin-2-one] |
| 0.889 | 1120 | CO[C@H]1CC[C@@H](n2c(=O)n(C)c3cnc4ccc(-c5ccc(N6CC[C@@H](N(C)C)C6)nc5)cc4c32)CC1 (single isomer, unassigned) [Example 44] |
| 0.618 | > 30000 | CO[C@@H]1CCC[C@H](n2c(=O)n(C)c3cnc4ccc(-c5ccc(N6CCC(N(C)C)CC6)nc5)cc4c32)C1 (single isomer, unassigned) [Example 45] |
| 7.7 | > 10000 | CO[C@@H]1CCC[C@H](n2c(=O)n(C)c3cnc4ccc(-c5ccc(N6CCC(N(C)C)CC6)nc5)cc4c32)C1 (single isomer, unassigned) [Example 46, 8-[6-[4-(dimethylamino)-1-piperidyl]-3-pyridyl]-1-[cis-3-methoxycyclohexyl]-3-methyl-imidazo[4,5-c]quinolin-2-one] |
| 2.7 | 1800 | CO[C@@H]1CCC[C@H](n2c(=O)n(C)c3cnc4ccc(-c5ccc(N6CC[C@@H](N(C)C)C6)nc5)cc4c32)C1 (single isomer, unassigned) [Example 47] |
| 2.34 | 201 | CO[C@@H]1CCC[C@H](n2c(=O)n(C)c3cnc4ccc(-c5ccc(N6CC[C@@H](N(C)C)C6)nc5)cc4c32)C1 (single isomer, unassigned) [Example 48] |
| 15.3 | 1910 | CO[C@@H]1CCC[C@H](n2c(=O)n(C)c3cnc4ccc(-c5ccc(N6CC(N(C)C)C6)nc5)cc4c32)C1 (single isomer, unassigned) [Example 49, 8-[6-[3-(dimethylamino)azetidin-1-yl]-3-pyridyl]-1-[cis-3-methoxycyclohexyl]-3-methyl-imidazo[4,5-c]quinoline-2-one] |
| > 23.9 |  | CN(C)[C@@H]1CCN(c2ccc(-c3ccc4ncc5c(c4c3)n(C3CCOCC3)c(=O)n5C)cn2)C1 [Example 13] |
| 1.51 |  | CN(C)[C@@H]1CCN(c2ccc(-c3cc4c(cc3F)ncc3c4n([C@@H]4CCCOC4)c(=O)n3C)cn2)C1 [Example 14] |
